Publication PMC7536268, “Increased Antimicrobial Activity of Colistin in Combination With Gamithromycin Against Pasteurella multocida in a Neutropenic Murine Lung Infection Model” (Frontiers in Microbiology, 2020)
Structures can show the parent of a compound that is named as a salt. Where two headings read alike, the source gives them in different places.

Legend:
[1] = system: Pasteurella multocida strains; assay: MIC by broth microdilution (CLSI); assay type: cell-based; settings: drug alone, against three strains (D18, T5, and WJ11)
Protocol: The susceptibility of the selected P. multocida isolates and the quality control isolate (ATCC 25922) to colistin, gamithromycin, cefquinome, enrofloxacin, tilmicosin, tylosin tartrate, and florfenicol alone was determined using the microdilution method in broth (conducted in triplicate) according to the guiding principles of the CLSI. Based on the action mechanism of each drug, the antimicrobial activity of colistin or cefquinome (drug A) in combination with gamithromycin, enrofloxacin, tilmicosin, tylosin tartrate, or florfenicol (drug B) was determined with the checkerboard method, according to the minimal inhibitory concentration (MIC) of each drug. Briefly, 50 μL of MH II broth was added to each well, and 50 μL of the indicated concentration of colistin or cefquinome was added into the first well of each line. This was followed by multiproportion dilution. Next, 50-μL samples of different concentrations of gamithromycin or the other drugs mentioned above were added to the dilution medium, and a 100 μL inoculum with a cell density of ∼1 × 10^6 colony-forming units (CFU)/mL was added to each well. The plates were then incubated at 37°C for 24 h. According to the EUCAST definitive document E.Def 1.2 ([Mccullough, 2010]), the fractional inhibitory concentration (FIC) index for combined administrations was defined as the sum of the FIC of drug A and the FIC of drug B, where FIC is the MIC of the drug combined with other drugs, divided by the MIC of the drug alone.

P. multocida = system: P. multocida; design: method as in Benoit et al., 2011; settings: P. multocida with erm(E); ref Benoit et al., 2011; cited from earlier work
From the text: Bovine respiratory disease (BRD) associated with Mannheimia haemolytica, P. multocida, and Histophilus somni is one of the most economically important diseases that occur in feedlots, and the global losses are estimated at over $3 billion per year ([Watts and Sweeney, 2010]).

[2] = Pasteurella multocida, read-out: MIC

MIC [1]	MIC [1, 2]	Compound	MIC (P. multocida)
more than 64 mg/L		CO/N=C(\C(=O)N[C@@H]1C(=O)N2C(C(=O)[O-])=C(C[n+]3cccc4c3CCCC4)CS[C@H]12)c1csc(N)n1 [cefquinome, Cefquinome]	
	> 64 µg/mL	CCN1CCN(c2cc3c(cc2F)c(=O)c(C(=O)O)cn3C2CC2)CC1 [enrofloxacin, Enrofloxacin]	
	2 to 4 µg/mL	CS(=O)(=O)c1ccc([C@@H](O)[C@@H](CF)NC(=O)C(Cl)Cl)cc1 [florfenicol]	
	2 to 4 µg/mL	CC[C@H]1OC(=O)C[C@@H](O)[C@H](C)[C@@H](O[C@@H]2O[C@H](C)[C@@H](O)[C@H](N(C)C)[C@H]2O)[C@@H](CCN2C[C@H](C)C[C@H](C)C2)C[C@@H](C)C(=O)/C=C/C(C)=C/[C@@H]1CO[C@@H]1O[C@H](C)[C@@H](O)[C@@H](OC)[C@H]1OC [tilmicosin]	≥ 512 µg/mL
		CCCNC[C@]1(O)[C@H](C)O[C@@H](O[C@H]2[C@H](C)[C@@H](O[C@@H]3O[C@H](C)C[C@H](N(C)C)[C@H]3O)[C@](C)(O)C[C@@H](C)CN[C@H](C)[C@@H](O)[C@](C)(O)[C@@H](CC)OC(=O)[C@@H]2C)C[C@@]1(C)OC [tulathromycin]	≥ 512 µg/mL
	> 64 µg/mL	CC[C@H]1OC(=O)C[C@@H](O)[C@H](C)[C@@H](O[C@@H]2O[C@H](C)[C@@H](O[C@H]3C[C@@](C)(O)[C@@H](O)[C@H](C)O3)[C@H](N(C)C)[C@H]2O)[C@@H](CC=O)C[C@@H](C)C(=O)/C=C/C(C)=C/[C@@H]1CO[C@@H]1O[C@H](C)[C@@H](O)[C@@H](OC)[C@H]1OC [tylosin, tylosin tartrate]	≥ 512 µg/mL
